Patent publication US20110009469A1, “COMPOSITIONS AND METHODS OF TREATING NEOPLASIA” (The Johns Hopkins University, priority 2007, published 2011)

How the values were obtained:
Assay type in all cases: cell-based
[1] = system: miR-143 and miR-145 expression in HPNE-Kras^G12D cells; test: miR-143 and miR-145 expression by northern blot and qRT-PCR in HPNE-Kras^G12D cells; conditions: HPNE-Kras^G12D cells treated with inhibitor
From the text: (§1) Vista was used to generate pairwise alignments between the genomic sequence from human (May 2004 assembly) and the indicated species. The graph is a plot of nucleotide identity for a 100-bp sliding window centered at a given position. […] Expression of RNA transcripts was normalized to β-actin. FIG. 3C is a graph showing the results of a quantitative RT-PCR analysis of miR-143 and miR-145 expression in the cell lines described above. miRNA expression was normalized to 18S RNA. Error bars represent standard deviations.
(§2) U6 served as a loading control. […] Error bars represent standard deviations.
(§3) HPNE-Kras^G12D cells were infected with the anti-RREB-1 lentivirus-shRNA construct and selected in neomycin.
(§4) Kras activity leads to activation of both the Map Kinase (MAPK) cascade (also known as the RAF/MEK/MAPK pathway) and the phosphatidylinositol-3 kinase (PI3K) pathway. In order to determine which of these downstream effector pathways is involved in the Kras-RREB1-miR-143/145 pathway, levels of miR-143 and miR-145 were examined in HPNE-Kras^G12D cells treated with specific inhibitors that target MAPK and PI3K.

[2] = system: miR-143/145 primary transcript in HPNE-Kras^G12D cells; test: quantitative RT-PCR of miR-143/145 primary transcript in HPNE-Kras^G12D cells; conditions: HPNE-Kras^G12D cells treated with inhibitor; qRT-PCR
From the text: as §1, §2, §3, §4

[3] = system: RREB-1 expression in HPNE-Kras^G12D cells; test: qPCR of RREB-1 expression in HPNE-Kras^G12D cells; conditions: HPNE-Kras^G12D cells treated with inhibitor
From the text: as §1, §2, §3, §4

| SMILES | miR-143 and miR-145 expression [1] | level of the miR-143/145 primary transcript [2] | RREB-1 expression [3] |
| --- | --- | --- | --- |
| O=c1cc(N2CCOCC2)oc2c(-c3ccccc3)cccc12 [LY294002] | no effect | – | – |
| N#CC(=C(/N)Sc1ccccc1N)/C(C#N)=C(\N)Sc1ccccc1N [U0126, 1,4-diamino-2,3-dicyano-1,4-bis(2-aminophenylthio)butadiene] | significant increase | increased | decreased |
